Biological target: Nef-ASK1 interaction (UniProt P03404+Q99683)
Settings: ATCC CRL-1573 cells co-transfected with Nef-ASK1g, 48 hours; ASK-1 alone 43.15, ASK-1 + Nef (background) 22.15, control 11.0
Description: HEK 293 cells were grown in Minimal Essential medium (low glucose, Sigma) supplemented with 10% fetal bovine serum, penicillin (100 units/ml), streptomycin (100 μg/ml) and Gentamycin (50 μg/ml) at 37° C. with 5% CO2. 1×10^5 cells were seeded per well in twenty four well plates, one day before transfection. Using commercially available ExGen 500 (fermentas) transfection reagent, all the required endotoxin free plasmid constructs were co-transfected into HEK 293 cells. 0.75 microgram of each plasmid and 5.0 micro liters per well ExGen 500 reagent were used. 48 h post transfection the cells were harvested and Luciferase activity was monitored using the Dual-Luciferase® Reporter assay kit (Promega). The data for basal control were used for the conversion of Luciferase activity to fold activation. As a positive control, the protein-protein interaction vectors pACTMyoD and pBIND-ID encoding the MyoD and ID control proteins, provided with the kit were used.
The ASK1g, h, i,j fragments alone and with Nef were transfected in ATCC CRL-1573™ cells. The transfected cells were cultured for 48 hours and were labeled with AnnexinV and PI staining for analyzing aspoptosis.
Inhibitors were designed from the crystal structure of Nef solved in our laboratory (Pankaj et al., 2011) The inhibitors were cultured with cells transfected will Nef, ASK1g and co-transfected with Nef-ASK1g. The cells after 48 hours were analysed for apoptosis using annexin V and PI staining.

DEVGEANN [Peptide-3]
% of Annexin V cells means apoptotic cells: 40.37%

LHGMEDPE [Peptide-4]
% of Annexin V cells means apoptotic cells: 23.0%

TPGPGVRYP [Peptide-1]
% of Annexin V cells means apoptotic cells: 22.45%

GENNCLLH [Peptide-2]
% of Annexin V cells means apoptotic cells: 24.96%

PVRPQVPLRP [Peptide-5]
% of Annexin V cells means apoptotic cells: 22.45%
